According to US20190147975A1, “SF3B1 SUPPRESSION AS A THERAPY FOR TUMORS HARBORING SF3B1 COPY LOSS” (DANA-FARBER CANCER INSTITUTE, INC., priority 2016, published 2019):

Legend:
Hs578T, Cal51 cells = assay: Drug sensitivity curves for splicing inhibitors in cells without and with SF3B1 suppression; type: cell-based, human
From the text: FIG. 26A is a series of graphs showing drug sensitivity curves for indicated splicing inhibitors (“NSC-95397”, “pladienolide B”, “spliceostatin A”) in cells (“Hs578T”, “Cal51”) without and with SF3B1 suppression.

SF3B1 = assay: Immunoblot of SF3B1 expression in Cal51 cells treated with DUB inhibitors; type: cell-based, human; conditions: treated for 4 or 24 hours
Protocol: FIG. 37 is an immunoblot showing SF3B1 expression in Cal51 cells treated with de-ubiquitinase (DUB) inhibitors (“PR-619”, “b-AP15”, “SJB3-019A”) for 4 or 24 hours. For all figures, *p<0.05, **p<0.01, ***p<0.001 unless otherwise indicated, and error bars represent +/−standard deviation.
In addition to SF3B1 RNA interference and SF3B inhibition, SF3B1 suppression can be exerted by deubiquitinase (DUB) inhibition. […] Therefore, DUB inhibitors may be capable of killing SF3B1^loss cells specifically.
For denaturing protein immunoblots, cells were washed in ice cold PBS and lysed in 1× RIPA buffer (10 mM Tris-Cl Ph 8.0, 1 mM EDTA, 1% Triton X-100, 0.1% SDS and 140 mM NaCl) supplemented with lx protease and phosphatase inhibitor cocktail (PI-290, Boston Bioproducts). Lysates were sonicated in a bioruptor (Diagenode) for 5 minutes (medium intensity) and cleared by centrifugation at 15000×g for 15 min at 4 C. Proteins were electrophoresed on polyacrylamide gradient gels (Life Technologies) and detected by chemiluminescence. For native western blotting, cells were washed in ice cold PBS and lysed in 1× sonication buffer (10% Glycerol, 25 mM HEPES pH 7.4, 10 mM MgCl2) supplemented with protease and phosphatase inhibitors. Coomassie blue native PAGE western blots were run according the manufacturer's instructions (Life Technologies).

[1] = test system: CRISPR^frameshift-loss xenografts; assay: Xenograft growth with doxycycline-induced SF3B1 suppression; type: in vivo, nude mice; conditions: doxycycline-induced shRNA, p=0.001
From the text: (§1) To test the effects of SF3B1 suppression in vivo, xenografts were generated using luciferase-labeled cell lines from the CRISPR^frameshift-loss and CRISPR^neutral#1 cells containing TR-shSF3B1#3. Animals were placed on doxycycline upon detection of palpable tumors. CRISPR^frameshift-loss and CRISPR^neutral#1 cells generated tumors of similar volume in the absence of doxycycline (FIG. 34; p=0.7, repeated measures ANOVA).
All animal husbandry was done with the approval of the Dana-Farber Cancer Institute IACUC. 1×10^6 CRISPR^neutral#1 or CRISPR^frameshift-loss cells expressing TR-shSF3B1 #3 were subcutaneously injected into opposing flanks of nude mice (Foxn1 nu/nu, Harlan). Animals were randomized to control group or doxycycline treatment after detection of a palpable tumor on either flank. Mice in the doxycycline treatment arm were continuously fed a doxycycline diet (2,000 ppm). Mice were sacrificed at the end of the experiment, or when endpoints were reached based on failure to thrive according to IACUC recommendation. […]
A custom image analysis pipeline was used to systematically quantify Ki67+ cells from tumor xenografts using CellProfilier. A minimum of 3 tumors per group, totaling at least 2,440 nuclei per tumor, was used to quantify the ratio of Ki67+ cells. At least 5 individual and random microscopic images from each tumor were analyzed.

[2] = test system: SF3B1^neutral Cal51 xenografts; assay: Growth of established xenograft tumors without or with doxycycline; type: in vivo; conditions: with doxycycline vs without
From the text: FIG. 36A is a graph showing growth of established tumors for Cal51 xenografts without doxycycline (“−Dox”, n=13) or with doxycycline (“+Dox”, n=12) using TR-shSF3B1 #3.
as §1

[3] = test system: SF3B1^loss HCC1954 xenografts; assay: as above; type: in vivo; conditions: with doxycycline vs without
From the text: FIG. 36B is a graph showing growth of established tumors for HCC1954 xenografts without doxycycline (“−Dox”, n=13) or with doxycycline (“+Dox”, n=12) using TR-shSF3B1 #3. ***p≤0.001.
as §1

For `O=C1C(SCCO)=C(SCCO)C(=O)c2ccccc21` [NSC95397], the “increased effects on cells with SF3B1 copy-loss or suppression” value (Hs578T, Cal51 cells; cells with SF3B1 copy-loss or suppression) was “failed to exhibit increased effects”.

For `N#CSc1cc(SC#N)c(N)nc1N` [PR-619], the SF3B1 expression (SF3B1) was “significant decrease”.

In the case of `O=C1c2ccccc2C(=O)c2oc(-c3cccnc3)nc21` [SJB3-019A], the SF3B1 expression (SF3B1) is reported as “significant decrease”.

For `CO[C@]1(C)C[C@@]2(CO2)[C@H](O)[C@@H](/C=C/C(C)=C/C[C@@H]2O[C@H](C)[C@H](NC(=O)/C=C\[C@H](C)OC(C)=O)C[C@@H]2C)O1` [Spliceostatin A], the cell death (Hs578T, Cal51 cells; Hs578T breast cancer cells, when suppression of SF3B1 expression is induced) was “increased cell death”.

`C=CC(=O)N1C/C(=C\c2ccc([N+](=O)[O-])cc2)C(=O)/C(=C/c2ccc([N+](=O)[O-])cc2)C1` [b-AP15] was tested, and the SF3B1 expression (SF3B1) was “significant decrease”.

B1: TR-shSF3B1#3: doxycycline-inducible shRNA targeting SF3B1 in pLKO-Tet-puro, SEQ ID NO: 12/13 (nucleic acid)
sense: CCGGCAACTCCTTATGGTATCGAATCTCGAGATTCGATACCATAAGGAGTTGTTTTTG
antisense: AATTCAAAAACAACTCCTTATGGTATCGAATCTCGAGATTCGATACCATAAGGAGTTG
In the case of B1, the “number of proliferative Ki67+ cells” value ([1]; Ki67 immunohistochemistry) is reported as “reduced”, the growth of tumor ([1]; luminescent quantification) is reported as “reduced the growth of tumor” and the tumor growth [2] is reported as “not in SF3B1^neutral Cal51 xenografts”. The tumor growth [3] was “reduced tumor growth was observed”.
